Data as given in patent US10168342B2, “Lipid probes and uses thereof” (THE SCRIPPS RESEARCH INSTITUTE, priority 2015, dated 2019).
Like-named read-outs stand apart in the source and are kept apart here.

Columns and labels:
[1] = biological target: T1, AEA-DA lipid probe targets in Neuro2a cells (Mus musculus, UniProt Q8CFE6)
T1 sequence (Q8CFE6 1-504): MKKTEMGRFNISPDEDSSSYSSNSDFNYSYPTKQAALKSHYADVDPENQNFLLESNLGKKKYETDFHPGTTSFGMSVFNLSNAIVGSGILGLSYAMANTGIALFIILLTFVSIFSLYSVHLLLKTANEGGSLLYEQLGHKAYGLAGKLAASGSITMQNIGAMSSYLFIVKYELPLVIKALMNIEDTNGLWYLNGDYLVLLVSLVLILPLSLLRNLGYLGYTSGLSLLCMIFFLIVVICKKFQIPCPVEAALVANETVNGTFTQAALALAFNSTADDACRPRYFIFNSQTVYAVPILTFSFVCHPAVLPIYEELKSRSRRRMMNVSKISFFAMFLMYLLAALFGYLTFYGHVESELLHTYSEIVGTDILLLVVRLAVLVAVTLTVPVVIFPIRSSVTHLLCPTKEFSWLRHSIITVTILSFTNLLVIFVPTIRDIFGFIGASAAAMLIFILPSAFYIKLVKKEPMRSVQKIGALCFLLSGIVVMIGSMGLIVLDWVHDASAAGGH

[2] = biological target: T2, AEA-DA lipid probe targets in Neuro2a cells (Mus musculus, UniProt Q8BHN3)
T2 sequence (Q8BHN3 33-944): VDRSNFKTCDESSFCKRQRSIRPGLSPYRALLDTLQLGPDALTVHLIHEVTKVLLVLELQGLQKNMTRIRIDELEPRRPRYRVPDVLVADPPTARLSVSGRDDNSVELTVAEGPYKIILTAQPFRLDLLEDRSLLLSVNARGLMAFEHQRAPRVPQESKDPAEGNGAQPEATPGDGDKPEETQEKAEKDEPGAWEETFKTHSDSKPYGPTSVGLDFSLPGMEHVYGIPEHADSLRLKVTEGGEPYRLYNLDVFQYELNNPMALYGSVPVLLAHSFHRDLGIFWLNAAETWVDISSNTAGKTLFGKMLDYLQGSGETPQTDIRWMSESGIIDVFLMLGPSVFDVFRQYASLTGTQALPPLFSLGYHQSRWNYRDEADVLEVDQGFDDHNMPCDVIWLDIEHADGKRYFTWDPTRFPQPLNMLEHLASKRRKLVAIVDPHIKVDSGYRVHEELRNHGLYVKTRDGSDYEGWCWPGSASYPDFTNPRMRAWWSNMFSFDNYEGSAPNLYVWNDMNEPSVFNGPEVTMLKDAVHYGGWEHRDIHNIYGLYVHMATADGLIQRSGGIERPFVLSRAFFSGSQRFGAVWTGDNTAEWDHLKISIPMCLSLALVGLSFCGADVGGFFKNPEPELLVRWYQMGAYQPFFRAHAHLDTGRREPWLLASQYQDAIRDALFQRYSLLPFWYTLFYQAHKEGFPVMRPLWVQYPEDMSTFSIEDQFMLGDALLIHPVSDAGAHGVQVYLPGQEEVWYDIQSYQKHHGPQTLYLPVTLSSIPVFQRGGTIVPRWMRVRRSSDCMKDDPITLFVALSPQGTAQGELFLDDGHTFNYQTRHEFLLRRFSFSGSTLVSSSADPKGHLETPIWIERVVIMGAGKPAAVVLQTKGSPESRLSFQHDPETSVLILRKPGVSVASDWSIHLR

[3] = biological target: T3, AEA-DA lipid probe targets in Neuro2a cells (Mus musculus, UniProt P55096)
T3 sequence (P55096 1-659): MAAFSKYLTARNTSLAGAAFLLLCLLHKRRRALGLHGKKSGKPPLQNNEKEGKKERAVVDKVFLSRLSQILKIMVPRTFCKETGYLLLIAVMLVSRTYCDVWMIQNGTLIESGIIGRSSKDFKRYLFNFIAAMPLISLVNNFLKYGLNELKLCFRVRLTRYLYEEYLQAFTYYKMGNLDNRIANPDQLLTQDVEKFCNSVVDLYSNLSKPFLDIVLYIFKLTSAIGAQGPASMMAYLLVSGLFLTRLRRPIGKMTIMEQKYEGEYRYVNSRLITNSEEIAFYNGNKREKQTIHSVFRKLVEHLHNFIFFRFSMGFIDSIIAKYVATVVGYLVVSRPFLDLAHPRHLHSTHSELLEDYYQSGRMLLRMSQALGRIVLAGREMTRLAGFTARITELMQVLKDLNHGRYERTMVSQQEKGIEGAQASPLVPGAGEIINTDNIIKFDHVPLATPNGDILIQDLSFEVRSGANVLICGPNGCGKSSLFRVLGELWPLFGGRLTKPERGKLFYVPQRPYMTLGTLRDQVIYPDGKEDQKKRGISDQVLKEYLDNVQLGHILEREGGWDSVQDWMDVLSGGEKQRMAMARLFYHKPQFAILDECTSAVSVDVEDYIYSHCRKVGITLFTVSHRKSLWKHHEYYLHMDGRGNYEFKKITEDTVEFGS

[4] = biological target: T4, AEA-DA lipid probe targets in Neuro2a cells (Mus musculus, UniProt Q62465); settings: for SILAC ratio, VAT1 (Q99536): Neuro2a cells, AEA-DA probe
T4 sequence (Q62465 1-406): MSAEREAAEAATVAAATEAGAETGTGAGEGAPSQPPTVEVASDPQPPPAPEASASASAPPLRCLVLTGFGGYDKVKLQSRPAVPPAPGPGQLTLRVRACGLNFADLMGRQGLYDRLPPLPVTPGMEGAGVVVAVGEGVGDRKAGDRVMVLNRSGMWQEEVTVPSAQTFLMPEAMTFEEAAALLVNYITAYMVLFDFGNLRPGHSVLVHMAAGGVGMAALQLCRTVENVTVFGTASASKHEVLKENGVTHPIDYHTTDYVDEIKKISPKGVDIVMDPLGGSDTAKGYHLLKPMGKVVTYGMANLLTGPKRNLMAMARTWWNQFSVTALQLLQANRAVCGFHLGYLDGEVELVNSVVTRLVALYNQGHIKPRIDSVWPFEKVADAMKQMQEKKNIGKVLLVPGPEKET

[5] = biological target: T5, AEA-DA lipid probe targets in Neuro2a cells (Mus musculus, UniProt Q61335)
T5 sequence (Q61335 1-245): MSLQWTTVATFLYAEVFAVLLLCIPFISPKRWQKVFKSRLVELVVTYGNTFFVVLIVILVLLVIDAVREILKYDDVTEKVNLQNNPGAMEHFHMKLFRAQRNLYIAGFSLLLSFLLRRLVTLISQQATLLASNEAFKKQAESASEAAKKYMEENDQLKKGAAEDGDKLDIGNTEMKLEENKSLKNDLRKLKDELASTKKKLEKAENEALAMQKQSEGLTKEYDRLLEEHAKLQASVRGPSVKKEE

CCCCC/C=C\C/C=C\C/C=C\C/C=C\CCCC(=O)NCCO [AEA, anandamide, reference compound]
SILAC ratio Slc38a2 ([1]; competitor 200 μM): 1.5
SILAC ratio Ganab ([2]; competitor 200 μM): 1.1
SILAC ratio Abcd3 ([3]; competitor 200 μM): 1.5
SILAC ratio, VAT1 (Q99536) ([4]; competitor 200 μM): 1.6
SILAC ratio Vat1 ([4]; competitor 200 μM): 1.6
SILAC ratio, Bcap31 ([5]; competitor 200 μM): 2.3

O=C(/C=C/c1cccnc1)NCCCCC1CCN(C(=O)c2ccccc2)CC1 [FK-866, reference compound]
SILAC ratio Slc38a2 ([1]; competitor 25 μM): 1.0
SILAC ratio Ganab ([2]; competitor 25 μM): 1.1
SILAC ratio Abcd3 ([3]; competitor 25 μM): 1.3
SILAC ratio, VAT1 (Q99536) ([4]; competitor 25 μM): 1.9
SILAC ratio Vat1 ([4]; competitor 25 μM): 1.9
SILAC ratio, Bcap31 ([5]; competitor 25 μM): 1.6

CN1CCN(C(=O)c2c(-c3ccccc3)c3cc([N+](=O)[O-])ccc3n2C)CC1 [KML110, (1-Methyl-5-nitro-3-phenyl-1H-indol-2-yl)(4-methylpiperazin-1-yl)methanone]
SILAC ratio Slc38a2 ([1]; competitor 25 μM): 1.2
SILAC ratio Ganab ([2]; competitor 25 μM): 1.3
SILAC ratio Abcd3 ([3]; competitor 25 μM): 1.2
SILAC ratio Vat1 ([4]; competitor 25 μM): 1.4
SILAC ratio, Bcap31 ([5]; competitor 25 μM): 2.0

CN1CCN(C(=O)c2[nH]c3ccc([N+](=O)[O-])cc3c2-c2ccccc2)CC1 [MJN228, (4-Methylpiperazin-1-yl)(5-nitro-3-phenyl-1H-indol-2-yl)methanone]
SILAC ratio Slc38a2 ([1]; competitor 10 μM): 1.2
SILAC ratio Slc38a2 ([1]; competitor 25 μM): 1.3
SILAC ratio Slc38a2 ([1]; competitor 100 μM): 1.2
SILAC ratio Ganab ([2]; competitor 10 μM): 1.2
SILAC ratio Ganab ([2]; competitor 25 μM): 1.2
SILAC ratio Ganab ([2]; competitor 50 μM): 1.5
SILAC ratio Ganab ([2]; competitor 100 μM): 1.6
SILAC ratio Abcd3 ([3]; competitor 10 μM): 1.2
SILAC ratio Abcd3 ([3]; competitor 25 μM): 1.5
SILAC ratio Abcd3 ([3]; competitor 50 μM): 1.3
SILAC ratio Abcd3 ([3]; competitor 100 μM): 1.2
SILAC ratio Vat1 ([4]; competitor 10 μM): 1.2
SILAC ratio Vat1 ([4]; competitor 25 μM): 1.3
SILAC ratio Vat1 ([4]; competitor 50 μM): 1.0
SILAC ratio Vat1 ([4]; competitor 100 μM): 1.2
SILAC ratio, Bcap31 ([5]; competitor 10 μM): 2.1
SILAC ratio, Bcap31 ([5]; competitor 25 μM): 2.5
SILAC ratio, Bcap31 ([5]; competitor 50 μM): 3.8
SILAC ratio, Bcap31 ([5]; competitor 100 μM): 4.0

C=CCN(C)CCCCCCOc1ccc(C(=O)c2ccc(Br)cc2)c(F)c1 [Ro 48-8071, reference compound]
SILAC ratio Slc38a2 ([1]; competitor 25 μM): 0.7
SILAC ratio Ganab ([2]; competitor 25 μM): 0.9
SILAC ratio Abcd3 ([3]; competitor 25 μM): 0.9
SILAC ratio, VAT1 (Q99536) ([4]; competitor 25 μM): 1.2
SILAC ratio Vat1 ([4]; competitor 25 μM): 1.2
SILAC ratio, Bcap31 ([5]; competitor 25 μM): 1.4
